From the NIST ThermoML archive (doi:10.1021/je3005479)
Numbers after ± are expanded uncertainties.

Assays:
[1] = refractive index (Na D-line) (dimensionless); details: 83.07 kPa, Liquid, Standard Abbe refractometry
[2] = Liquid; for speed of sound / kinematic viscosity: 83.07 kPa; for speed of sound: Pulse-echo method; for mass density: 87.07 kPa, Vibrating tube method; for kinematic viscosity: Capillary tube (Ostwald / Ubbelohde) method

CC(C)C1CC(C(C)C)CC(C(C)C)C1 (stereo not drawn) [1,3,5-triisopropylcyclohexane]
Details	kinematic viscosity, [2] [m2/s]	mass density, [2] [kg/m3]	refractive index, [1]	speed of sound, [2] [m/s]
278.15 K	–	837.78 ± 0.39	–	1405.7 ± 2.3
283.15 K	–	834.14 ± 0.39	–	1385 ± 2.3
288.15 K	–	830.52 ± 0.39	–	1364.8 ± 2.2
293.15 K	7.66e-06 ± 1.3e-07	826.89 ± 0.39	1.4571 ± 0.0009	1344.8 ± 2.2
298.15 K	6.27e-06 ± 1.1e-07	823.27 ± 0.39	1.4547 ± 0.0007	1325 ± 2.2
303.15 K	5.22e-06 ± 8.4e-08	819.64 ± 0.39	1.4525 ± 0.0011	1305.5 ± 2.2
308.15 K	4.43e-06 ± 6.8e-08	816.02 ± 0.39	–	1286.3 ± 2.2
313.15 K	3.81e-06 ± 5.6e-08	812.39 ± 0.39	–	1267.3 ± 2.2
318.15 K	3.32e-06 ± 4.9e-08	808.76 ± 0.39	–	1248.6 ± 2.1
323.15 K	2.9e-06 ± 3.7e-08	805.12 ± 0.39	–	1230 ± 2.1
328.15 K	2.58e-06 ± 3.1e-08	801.49 ± 0.39	–	1211.7 ± 2.1
333.15 K	2.32e-06 ± 2.7e-08	797.85 ± 0.39	–	1193.6 ± 2.1
338.15 K	2.09e-06 ± 2.3e-08	794.21 ± 0.39	–	1175.6 ± 2.1
343.15 K	1.9e-06 ± 2.1e-08	790.57 ± 0.39	–	1158 ± 2.1
348.15 K	1.74e-06 ± 1.9e-08	–	–	–
353.15 K	1.6e-06 ± 1.7e-08	–	–	–
358.15 K	1.48e-06 ± 1.5e-08	–	–	–
363.15 K	1.37e-06 ± 1.4e-08	–	–	–
368.15 K	1.28e-06 ± 1.3e-08	–	–	–
373.15 K	1.19e-06 ± 1.4e-08	–	–	–
